What was measured:
[1] = molecular target: T1, LMP7 (Homo sapiens, UniProt P28062); assay: Enzymatic inhibitory activity on LMP7 (MOLT-4 cell lysate, Ac-ANW-AMC substrate); assay type: biochemical; details: 1 hour pre-incubation
T1 construct: using MOLT-4 cell lysate as the enzyme source of LMP7; endogenous in cells; host or cells: MOLT-4 (human acute lymphoblastic leukemia cells)
Outline: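 Enzyme source was MOLT-4 cell lysate (20 ng/μl final) in 20 mM Tris pH 8.0, 0.5 mM EDTA, preincubated 1 h at 23 °C with compound at 9 final concentrations (0–2000 nM). Ac-ANW-AMC ([…]) was then added, 2 h at 23 °C in the dark. AMC fluorescence (ex 345/em 445 nm) gave the IC50.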

[2] = system: multiple myeloma cells MM. 1S; assay: In-vivo assay I: subcutaneous xenograft model of multiple myeloma cells MM. 1S in mice; details: MM. 1S xenograft, NOD/SCID mice; for animal death or weight loss caused by the compound: 2 mg/kg orally once daily for 14 days; for T/C / TGI (tumor growth inhibition rate): 2 mg/kg orally once daily, Day 14
Description: Evaluation assay of LMP7 inhibitors in a subcutaneous xenograft model of multiple myeloma cells MM. 1S in mice
Female NOD/SCID mice, week old: 5-6 weeks old, certificate No: SCXK(Jing) 2021-0006, purchased from Beijing Vital River Experimental Animal Technology Co. Ltd.
The specific method was that mice were housed in an SPF environment. Every 5 mice were housed in 1 cage. Animals were free to drink and eat and were adaptively raised for one week. Laboratory conditions: room temperature 18-24° C., relative humidity 40%-70%, ventilated with a ventilation fan, natural light source for 12 hours per day. Cages, bedding, drinking water, and feed were replaced twice a week, and the replaced cages and drinking water bottles were cleaned and then sterilized by steam under high pressure. Cages, room walls, and floors were cleaned twice a week with 84-disinfectant or bromogeramine.
MM. 1S (Cell Resource Center, Institute of Basic Medical Sciences, Chinese Academy of Medical Sciences) cells were cultured using RPMI-1640 medium supplemented with 20% fetal bovine serum and 1% Penicillin-Streptomycin at 37° C. in an atmosphere of 5% CO2 in air. Cells were routinely sub-cultured twice weekly, and cells grown in the exponential growth phase were harvested and counted. Cell suspensions were mixed well in 30% Matrigel™ (Corning Matrigel™ High Concentration Basement Membrane) for tumor cell inoculation.
Mice were pretreated with cyclophosphamide via intraperitoneal injection for 3 days, and each mouse was subcutaneously injected with 0.1 mL of PBS-suspended MM. 1S cell suspension (containing 1.0×10^7 cells, 30% Matrigel) at the axillary sites on both sides to establish a subcutaneous transplanted tumor model of multiple myeloma cells MM. 1S in mice. When the tumor size reached 400-700 mm^3, the tumor mass was collected aseptically and cryopreserved for future use. The MM. 1S tumor mass was revived, and the tumor mass was aseptically collected for 2 generations for an in-vivo efficacy evaluation assay. When the average tumor volume was about 100-150 mm^3, 20 tumor-bearing mice with a relatively regular shape and uniform size were selected for the experiment. They were divided into 4 groups, with 5 animals in each group. The first group of the model group was orally administered with the vehicle once daily; the second group was orally administered with Example 9 (2 mg/kg) once daily; the third group was orally administered with Example 67 (2 mg/kg) once daily; the fourth group was orally administered Example 73 (2 mg/kg) once daily. Administration was started on the day of grouping and continued for 14 days. Tumor diameter and body weight were measured 3 times per week during the experiment. At the end of the experiment, intraocular canthus blood was collected and mice were sacrificed immediately after blood collection to collect tumor tissue.
The study endpoints were tumor growth inhibition, maximum tumor burden (individual tumor size equal to 10% of body weight), and weight loss greater than 20% of body weight at the start of treatment. The tumor volume was calculated as V=0.5×a×b^2, where V is the tumor volume and a and b are the length and width of the tumor, respectively. The tumor growth inhibition rate was calculated as TGI (%)=(1-(tumor volume of treatment group-tumor volume of treatment group at grouping)/(tumor volume of control group-tumor volume of control group at grouping))*100%. Complete tumor regression (CR) is defined as a tumor that is reduced to below the palpation limit (mm^3). Partial tumor regression (PR) is defined as a tumor that is reduced by at least half compared to the initial tumor volume. The minimum duration of CR or PR in three or more consecutive tumor measurements is required to consider CR or PR as persistent. […]

Compound | IC50 [1] | animal death or weight loss caused by the compound [2] | T/C [2] | TGI (tumor growth inhibition rate) [2]
O=C(Nc1cnccn1)C(=O)N[C@@H](Cc1coc2ccccc12)B(O)O [Ex. 9, (R)-(2-(benzofuran-3-yl)-1-(2-oxo-2-(pyrazin-2-ylamino)acetamido)ethyl) boronic acid] | 9.02 nM | no animal death or weight loss | 0.88% | 112.28%
O=C(Nc1ccccn1)C(=O)N[C@@H](Cc1coc2ccccc12)B(O)O [Ex. 12] | 9.64 nM |  |  | 
O=C(Nc1nc2ccccc2s1)C(=O)N[C@@H](Cc1coc2ccccc12)B(O)O [Ex. 27, (R)-(2-(benzofuran-3-yl)-1-(2-oxo-2-((benzo[d]thiazol-2-yl)amino)acetamido)ethyl)boronic acid] | 3.53 nM |  |  | 
Cc1cnc(NC(=O)C(=O)N[C@@H](Cc2coc3ccccc23)B(O)O)s1 [Ex. 32, (R)-(2-(benzofuran-3-yl)-1-(2-oxo-2-((5-methylthiazol-2-yl)amino)acetamido)ethyl)boronic acid] | 4.6 nM |  |  | 
O=C(Nc1cc(Cl)ccn1)C(=O)N[C@@H](Cc1coc2ccccc12)B(O)O [Ex. 49, (R)-(2-(benzofuran-3-yl)-1-(2-oxo-2-((4-chloropyridin-2-yl)amino)acetamido)ethyl)boronic acid] | 1.51 nM |  |  | 
CC1CC(C)(C)OB([C@H](Cc2coc3ccccc23)NC(=O)C(=O)Nc2cnccn2)O1 (stereo partly shown) [Ex. 67] | 1.59 nM | no animal death or weight loss | 1.57% | 112.06%
O=C1COB([C@H](Cc2coc3ccccc23)NC(=O)C(=O)Nc2cnccn2)O1 [Ex. 73] | 1.23 nM | no animal death or weight loss | 0.53% | 112.56%

From patent US20240425529A1, “BORIC ACID DERIVATIVE” (SHOUYAO HOLDINGS (BEIJING) CO., LTD., priority 2021, published 2024)
